Reference: patent publication US9975861B2, “Dual inhibitor compounds for use in the treatment of neurodegenerative disorders and alzheimer's disease” (FONDAZIONE ISTITUTO ITALIANO DI TECNOLOGIA, priority 2014, dated 2018)

Key:
[1] = system: neurosphere cultures of primary rat neural stem cells; assay: Neurosphere cultures, immunocytochemistry for neural markers; type: cell-based; conditions: 10 μM during a week; compared to control (FIG. 3)
Source text: Neurosphere (NS) cultures were derived from the hippocampus of adult rats and induced to proliferate using established passaging methods to achieve optimal cellular expansion according to published protocols [Ferron, S. R.; Andreu-Agullo, C.; Mira, H.; Sanchez, P.; Marques-Torrejon, M. A.; Farinas, I. A combined ex/in vivo assay to detect effects of exogenously added factors in neural stem cells. Nature Protoc. 2007, 2, 849-859]. Rats were decapitated, brains removed, and the hippocampus dissected as described [Morales-Garcia, J. A.; Luna-Medina, R.; Alfaro-Cervello, C.; Cortes-Canteli, M.; Santos, A.; Garcia-Verdugo, J. M.; Perez-Castillo, A. Peroxisome proliferator-activated receptor gamma ligands regulate neural stem cell proliferation and differentiation in vitro and in vivo. Glia 2011, 59, 293-307]. Briefly, cells were seeded into 12-well dishes and cultured in DMEM/F12 (1:1, Invitrogen) containing 10 ng/mL epidermal growth factor (EGF, Peprotech, London, UK), 10 ng/mL fibroblast growth factor (FGF, Peprotech), and B27 medium (Gibco). After 3 days in culture, NS were cultivated in the presence or absence of the indicated compounds (10 μM) during a week. After that, NS from 10-day old cultures were plated for 72 hours onto 100 μg/mL poly-L-lysine-coated coverslips in the absence of exogenous growth factors.
Neurogenesis is a crucial property for new AD-modifying drugs, since it confers the potential to increase endogenous regeneration as a repair mechanism in the damaged brain, and reduce neuronal loss and degeneration. Considering that GSK-3β inhibition is reported to regulate and increase neurogenesis [Lange, C.; Mix, E.; Frahm, J.; Glass, A.; Muller, J.; Schmitt, O.; Schmole, A. C.; Klemm, K.; Ortinau, S.; Hubner, R.; Frech, M. J.; Wree, A.; Rolfs, A. Small molecule GSK-3 inhibitors increase neurogenesis of human neural progenitor cells. Neurosci. […]

Human recombinant GSK-3β = Human recombinant GSK-3β (Homo sapiens (Human), UniProt P49841); assay: Inhibition of GSK-3β (Kinase-Glo luminescent kinase assay); type: biochemical; conditions: 1 μM ATP, 25 μM substrate, 30 minutes at 30° C.
Human recombinant GSK-3β, sequence (P49841 whole entry): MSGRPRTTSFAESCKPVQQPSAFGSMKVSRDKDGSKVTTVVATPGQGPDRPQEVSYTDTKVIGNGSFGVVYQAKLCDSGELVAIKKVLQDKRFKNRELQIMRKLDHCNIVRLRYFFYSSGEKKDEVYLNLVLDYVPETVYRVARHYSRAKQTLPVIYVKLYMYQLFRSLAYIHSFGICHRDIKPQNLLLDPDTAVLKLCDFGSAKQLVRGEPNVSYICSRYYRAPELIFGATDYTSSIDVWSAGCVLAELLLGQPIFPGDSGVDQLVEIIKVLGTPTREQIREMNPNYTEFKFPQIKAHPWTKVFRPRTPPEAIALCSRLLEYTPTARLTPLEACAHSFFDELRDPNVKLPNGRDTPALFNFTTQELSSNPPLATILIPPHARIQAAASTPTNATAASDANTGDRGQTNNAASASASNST
Description: Human recombinant GSK-3β was purchased from Millipore (Millipore Iberica S.A.U.) The prephosphorylated polypeptide substrate was purchased from Millipore (Millipore Iberica SAU). Kinase-Glo Luminescent Kinase Assay was obtained from Promega (Promega Biotech Iberica, SL). ATP and all other reagents were from Sigma-Aldrich. Assay buffer contained 50 mM 4-(2-hydroxyethyl)-1-piperazineethanesulfonic acid (HEPES) (pH 7.5), 1 mM ethylenediaminetetraacetic acid (EDTA), 1 mM ethylene glycol tetraacetic acid (EGTA), and 15 mM magnesium acetate. The method developed by Baki was followed [Baki et al. Assay and Drug Development Technologies 2007, 5(1),75-83] to analyze the inhibition of GSK-3β. Kinase-Glo assays were performed in assay buffer using white 96-well plates. In a typical assay, 10 μL (10 μM) of test compound (dissolved in DMSO at 1 mM concentration and diluted in advance in assay buffer to the desired concentration) and 10 μL (20 ng) of enzyme were added to each well followed by 20 μL of assay buffer containing 25 μM substrate and 1 μM adenosine triphosphate (ATP). […] After a 30 minutes incubation at 30° C., the enzymatic reaction was stopped with 40 μL of Kinase-Glo reagent. Glow-type luminescence was recorded after 10 minutes using a Fluoroskan Ascent multimode reader.
The activity is proportional to the difference of the total and consumed ATP.

β-secretase (BACE-1) = β-secretase (BACE-1) (Homo sapiens (Human), UniProt P56817); assay: Inhibition of BACE-1 (fluorogenic APP-mimicking peptide substrate); conditions: BACE-1 IC50 (μM), substrate 3 μM, 1 hour pre-incubation at rt, 15 minutes at 37° C.
β-secretase (BACE-1), sequence (P56817 46-501): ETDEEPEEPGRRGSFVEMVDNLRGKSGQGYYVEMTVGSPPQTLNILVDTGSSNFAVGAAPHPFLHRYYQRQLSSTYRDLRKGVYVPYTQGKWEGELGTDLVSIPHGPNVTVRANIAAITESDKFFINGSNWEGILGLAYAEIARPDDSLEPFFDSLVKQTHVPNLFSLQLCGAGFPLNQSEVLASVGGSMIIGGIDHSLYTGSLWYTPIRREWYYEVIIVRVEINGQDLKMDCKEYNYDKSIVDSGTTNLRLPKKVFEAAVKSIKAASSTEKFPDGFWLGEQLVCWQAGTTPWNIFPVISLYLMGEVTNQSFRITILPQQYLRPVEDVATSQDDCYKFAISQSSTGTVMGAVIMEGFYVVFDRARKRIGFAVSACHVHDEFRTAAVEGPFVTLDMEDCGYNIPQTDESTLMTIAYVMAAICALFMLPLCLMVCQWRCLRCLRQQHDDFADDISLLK
Description: β-secretase (BACE-1, Sigma-Aldrich) inhibition studies were performed by employing a peptide mimicking APP sequence as substrate (Methoxycoumarin-[sequence]dinitrophenyl, M-2420, Bachem, Germany). The following procedure was employed: 5 μL of test compounds (or DMSO, if preparing a control well) were pre-incubated with 175 μL of enzyme (in 20 mM sodium acetate containing 3-[(3-Cholamidopropyl)dimethylammonio]-1-propanesulfonate (CHAPS) 0.1% w/v) for 1 hour at rt. The substrate (3 μM, final concentration) was then added and left to react for 15 minutes at 37° C. The fluorescence signal was read at λem=405 nm (λexc=320 nm) using a Fluoroskan Ascent. […] The fluorescence intensities with and without inhibitor were compared and the percent inhibition due to the presence of test compounds was calculated. The background signal was measured in control wells containing all the reagents, except BACE-1 and subtracted. The % inhibition due to the presence of increasing test compound concentration was calculated by the following expression: 100−(IFi/IFo×100) where IFi and IFo are the fluorescence intensities obtained for BACE-1 in the presence and in the absence of inhibitor, respectively. […] The linear regression parameters were determined and the IC50 extrapolated (GraphPad Prism 4.0, GraphPad Software Inc.).

[2] = system: primary astrocytes and microglial cells; assay: Nitrites measurement (Griess reaction) in LPS-stimulated primary glial cells; type: cell-based, rat; conditions: compounds 10 μM for 1 hour, then LPS 10 μg/mL for 24 hours; astrocytes and microglia; potency compared with 6-amino triazinones A-C (FIGS. 2A, 2B)
Description: Astrocytes were prepared from neonatal (P2) rat cerebral cortex, as previously described by Luna-Medina et al. [Luna-Medina, R.; Cortes-Canteli, M.; Alonso, M.; Santos, A.; Martinez, A.; Perez-Castillo, A. Regulation of inflammatory response in neural cells in vitro by thiadiazolidinones derivatives through peroxisome proliferator-activated receptor gamma activation. J. Biol. Chem. 2005, 280, 21453-21462].
Briefly, after removal of the meninges, the cerebral cortex was dissected, dissociated, and incubated with 0.25% trypsin/EDTA at 37° C. for 1 hour. After centrifugation, the pellet was washed 3 times with Hank's balanced salt solution (HBSS) (Gibco) and the cells were placed on noncoated flasks and maintained in HAMS/Dulbecco's modified eagle's medium (DMEM) (1:1) medium containing 10% of fetal bovine serum (FBS). After 15 days, the flasks were agitated on an orbital shaker for 4 hours at 240 rpm at 37° C., the supernatant was collected, centrifuged, and the cellular pellet containing the microglial cells resuspended in complete medium (HAMS/DMEM (1:1) containing 10% FBS) and seeded on uncoated 96-well plates. Cells were allowed to adhere for 2 hours, and the medium was removed to eliminate nonadherent oligodendrocytes. New fresh medium containing 10 ng/mL of granulocyte-macrophage colony-stimulating factor (GM-CSF) was added. The remaining astroglial cells adhered on the flasks were then trypsinized, collected, centrifugated, and plated onto 96-well plates with complete medium. The purity of cultures obtained by this procedure was >98% as determined by immunofluorescence with the OX42 (microglial marker) and the glial fibrillary acidic protein (GFAP, astroglial marker) antibodies.
The potential anti-inflammatory activity of the selected compounds was tested by evaluating the production of nitrites from primary cultured glial cells. Primary cultures of astrocytes and microglia were incubated with the selected compounds (10 μM) for 1 hour, and then cells were cultured for another 24 hours with a potent inflammatory agent, such as lipopolysaccharide (LPS) (10 μg/mL). LPS is able to induce nitrite production and accumulation in the culture medium, which was assayed by the standard Griess reaction. Supernatants were collected from the media and mixed with an equal volume of Griess reagent (Sigma). Samples were then incubated at rt for 15 minutes and absorbance read using a plate reader at 492/540 nm.

Row | SMILES | number of MAP-2 positive cells (mature neuronal marker) [1] | IC50 (Human recombinant GSK-3β) | IC50 (β-secretase (BACE-1)) | reduction of LPS-induced nitrite production [2]
1 | NC1=NC(c2ccc(F)cc2)NC(=O)N1 (centres unmarked) [Compound A, reference compound] | only a marginal increase |  |  | 
2 | CCNC1=NC(c2ccccc2C)NC(=O)N1 (centres unmarked) [Example 2, 6-(ethylamino)-4-(o-tolyl)-3,4-dihydro-1,3,5-triazin-2(1H)-one] |  | 40.7 ± 2.7 µM | 50.3 ± 6.61 µM | 
3 | O=C1NC(Nc2ccccc2)=NC(c2ccc(F)cc2)N1 (centres unmarked) [Example 9, 4-(4-fluorophenyl)-6-(phenylamino)-3,4-dihydro-1,3,5-triazin-2(1H)-one] |  | 6.93 ± 0.14 µM |  | higher potency
